Patent publication US20030162661A1, “2,4-Diamino-1,3,5-triazines, their preparation, and their use as herbicides and plant growth regulators” (priority 1998, published 2003)

Key:
[1] = system: harmful plants such as Sinapis alba, Echinochloa crus- galli, Lolium multiflorum, Stellaria media, Cyperus iria, Amaranthus retroflexus, Setaria viridis and …; assay: Post-emergence effect on weeds (greenhouse pot test, visual scoring); format: in vivo; conditions: applied post-emergence (three-leaf stage) at an application rate of 1 kg and less of active substance per hectare; scored visually after about 3 to 4 weeks vs untreated controls
Protocol: 2. Post-emergence Effect on Weeds
Seeds or rhizome pieces of monocotyledonous and dicotyledonous weeds are placed in sandy loam soil in plastic pots, covered with soil and grown in the greenhouse under good growth conditions. Three weeks after sowing, the test plants are treated in the three-leaf stage. The compounds according to the invention which are formulated as wettable powders or as emulsion concentrates are sprayed in various dosages on the green parts of the plants at an application rate of 600 to 800 l of water/ha (converted). After the test plants have remained in the greenhouse for about 3 to 4 weeks under ideal growth conditions, the effect of the preparations is scored visually by comparison with untreated controls. The agents according to the invention also have a good herbicidal post-emergence action against a broad range of economically important grass weeds and dicotyledonous weeds.

[2] = system: harmful plants such as Stellaria media, Lolium multiflorum, Amaranthus retroflexus, Sinapis alba, Avena sativa and Setaria viridis; assay: Pre-emergence effect on weeds (greenhouse pot test, visual scoring); format: in vivo; conditions: applied pre-emergence at an application rate of 1 kg or less of active substance per hectare; scored visually after 3 to 4 weeks vs untreated controls;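 also: scored as plant damage or reduced emergence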
Excerpt: 1 Pre-emergence Effect on Weeds
Seeds or rhizome pieces of monocotyledonous and dicotyledonous weeds plants are placed in sandy loam soil in plastic pots and covered with soil. The compounds according to the invention which are formulated in the form of wettable powders or emulsion concentrates are then applied to the surface of the soil cover in the form of an aqueous suspension or emulsion at an application rate of 600 to 800 l of water/ha (converted), in various dosages.

Structure (SMILES)	herbicidal action against harmful plants, post-emergence [1]	herbicidal action against harmful plants, pre-emergence [2]
Cc1nc(N)nc(NC(CCc2ccccc2)C2CCC2)n1 (stereo not shown) [Example 4-3]	very good herbicidal action	very good herbicidal action
CC(C)c1nc(N)nc(NC(CCc2cccc(Cl)c2)C2CCC2)n1 (stereo not shown) [Example 4-10]	very good herbicidal action	very good herbicidal action
CC(C)(F)c1nc(N)nc(NC(CCc2cccc(Cl)c2)C2CCC2)n1 (stereo not shown) [Example 4-11]	very good herbicidal action	very good herbicidal action
Cc1ccccc1CCC(Nc1nc(N)nc(C(C)(C)F)n1)C1CCC1 (stereo not shown) [Example 4-25]	very good herbicidal action	very good herbicidal action
Cc1ccccc1CCC(Nc1nc(N)nc(C(C)C)n1)C1CCC1 (stereo not shown) [Example 4-26]	very good herbicidal action	very good herbicidal action
CC(C)c1nc(N)nc(NC(CCc2cccc(F)c2)C2CCC2)n1 (stereo not shown) [Example 4-27]	very good herbicidal action	very good herbicidal action
CC(C)(F)c1nc(N)nc(NC(CCc2cccc(F)c2)C2CCC2)n1 (stereo not shown) [Example 4-28]	very good herbicidal action	very good herbicidal action
Cc1cccc(CCC(Nc2nc(C)nc(N)n2)C2CCC2)c1 (stereo not shown) [Example 4-29, 2-Amino-6-methyl-4-[3-(3-methylphenyl)-1-cyclobutyl-1-propylamino]1,3,5-triazine]	very good herbicidal action	very good herbicidal action
CC(C)c1nc(N)nc(NC(CCc2ccccc2)C2CCCC2)n1 (stereo not shown) [Example 8-1]	very good herbicidal action	very good herbicidal action
CC(C)(F)c1nc(N)nc(NC(CCc2ccccc2)C2CCCC2)n1 (stereo not shown) [Example 8-2]	very good herbicidal action	very good herbicidal action
CC(C)Cc1nc(N)nc(NC(CCc2ccccc2)C2CC2)n1 (stereo not shown) [Example 9-1]	very good herbicidal action	very good herbicidal action
CCc1nc(N)nc(NC(CCc2ccccc2)C2CC2)n1 (stereo not shown) [Example 9-2]	very good herbicidal action	very good herbicidal action
Cc1nc(N)nc(NC(CCc2ccccc2)C2CC2)n1 (stereo not shown) [Example 9-3]	very good herbicidal action	very good herbicidal action
CC(C)(F)c1nc(N)nc(NC(CCc2cccc(C(F)(F)F)c2)C2CC2)n1 (stereo not shown) [Example 9-6]	very good herbicidal action	very good herbicidal action
CC(C)(F)c1nc(N)nc(NC(CCc2cccc(Cl)c2)C2CC2)n1 (stereo not shown) [Example 9-8]	very good herbicidal action	very good herbicidal action
CC(C)c1nc(N)nc(NC(CCc2cccc(C(F)(F)F)c2)C2CC2)n1 (stereo not shown) [Example 9-11]	very good herbicidal action	very good herbicidal action

Structure (SMILES)	herbicidal action against harmful plants, post-emergence [1]	herbicidal action against harmful plants, pre-emergence [2]
Cc1cccc(CCC(Nc2nc(N)nc(C(C)C)n2)C2CC2)c1 (stereo not shown) [Example 9-12]	very good herbicidal action	very good herbicidal action
COc1cccc(CCC(Nc2nc(N)nc(C(C)C)n2)C2CC2)c1 (stereo not shown) [Example 9-13]	very good herbicidal action	very good herbicidal action
COc1cccc(CCC(Nc2nc(N)nc(C(C)(C)F)n2)C2CC2)c1 (stereo not shown) [Example 9-14]	very good herbicidal action	very good herbicidal action
Cc1cccc(CCC(Nc2nc(N)nc(CC(C)C)n2)C2CC2)c1 (stereo not shown) [Example 9-15]	very good herbicidal action	very good herbicidal action
Cc1cccc(CCC(Nc2nc(N)nc(C(C)(C)F)n2)C2CC2)c1 (stereo not shown) [Example 9-16]	very good herbicidal action	very good herbicidal action
Cc1cc(C)cc(CCC(Nc2nc(N)nc(C(C)(C)F)n2)C2CC2)c1 (stereo not shown) [Example 9-17, 2-Amino-4-(1-fluoro-1-methylethyl)-6-[3-(3,5-dimethylphenyl)-1-cyclopropyl-1-propylamino]-1,3,5-triazine]	very good herbicidal action	very good herbicidal action
Cc1cc(C)cc(CCC(Nc2nc(N)nc(C(C)C)n2)C2CC2)c1 (stereo not shown) [Example 9-18]	very good herbicidal action	very good herbicidal action
Nc1nc(NC(CCc2ccccc2)C2CC2)nc(-c2ccccc2)n1 (stereo not shown) [Example 9-19]	very good herbicidal action	very good herbicidal action
CC(C)(F)c1nc(N)nc(NC(CCc2ccccc2)C2CC2(C)C)n1 (stereo not shown) [Example 10-1]	very good herbicidal action	very good herbicidal action
CC(C)(F)c1nc(N)nc(NC(CCc2ccccc2)c2ccoc2)n1 (stereo not shown) [Example 18-1]	very good herbicidal action	very good herbicidal action
CC(C)c1nc(N)nc(NC(CCc2ccccc2)c2ccoc2)n1 (stereo not shown) [Example 18-2]	very good herbicidal action	very good herbicidal action
CC(C)(F)c1nc(N)nc(NC(CCc2ccccc2)c2ccccc2)n1 (stereo not shown) [Example 18-3]	very good herbicidal action	very good herbicidal action
CC(C)c1nc(N)nc(NC(CCc2ccccc2)c2ccccc2)n1 (stereo not shown) [Example 18-4]	very good herbicidal action	very good herbicidal action
CC(C)(F)c1nc(N)nc(NC(CCc2ccccc2)C2CCCO2)n1 (stereo not shown) [Example 19-5]	very good herbicidal action	very good herbicidal action
CC(C)c1nc(N)nc(NC(CCc2ccccc2)C2CCCO2)n1 (stereo not shown) [Example 19-6]	very good herbicidal action	very good herbicidal action
CC(C)(F)c1nc(N)nc(NC(CCc2ccccc2)C2CCOC2)n1 (stereo not shown) [Example 20-1]	very good herbicidal action	very good herbicidal action
